ChEMBL document CHEMBL1201862, “PubChem BioAssay data set” (2004)
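1) Cells in 96-well plates. 2) Compound, 48 h, 5 concentrations. 3) Linear interpolation between surrounding doses. 4) Unreached endpoint = highest concentration. Abbreviation: GI50, concentration required for 50% inhibition of growth.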 Calls of active or inactive are those of the source. Cut-off read from the data, not from the text of the source: active = GI50 up to about 1.1 µM and inactive = higher.

Key:
Assay in all cases: growth of human tumour cells (NCI), 48 h
RXF 393 = test system: RXF 393
NCI-H460 = test system: NCI-H460
HT-29 = test system: HT-29
HCC 2998 = test system: HCC 2998
OVCAR-5 = test system: OVCAR-5
HOP-92 = test system: HOP-92
NCI-H522 = test system: NCI-H522
M14 = test system: M14
U-251 = test system: U-251
RPMI-8226 = test system: RPMI-8226
IGROV-1 = test system: IGROV-1
SN12C = test system: SN12C
CCRF-CEM = test system: CCRF-CEM
MDA-MB-435 = test system: MDA-MB-435
PC-3 = test system: PC-3
DU-145 = test system: DU-145
T47D = test system: T47D
HCT-15 = test system: HCT-15
SF-268 = test system: SF-268

Row | SMILES | GI50 (RXF 393) | GI50 (NCI-H460) | GI50 (HT-29) | GI50 (HCC 2998) | GI50 (OVCAR-5) | GI50 (HOP-92) | GI50 (NCI-H522) | GI50 (M14) | GI50 (U-251) | GI50 (RPMI-8226) | GI50 (IGROV-1) | GI50 (SN12C) | GI50 (CCRF-CEM) | GI50 (MDA-MB-435) | GI50 (PC-3) | GI50 (DU-145) | GI50 (T47D) | GI50 (HCT-15) | GI50 (SF-268)
1 | COC1(OC)C(/C(N)=C\O)=NC(C)(C)N1O | > 100 µM (inactive) | > 100 µM (inactive) | > 100 µM (inactive) | > 100 µM (inactive) | > 100 µM (inactive) | > 100 µM (inactive) | > 100 µM (inactive) | > 100 µM (inactive) | > 100 µM (inactive) | > 100 µM (inactive) | > 100 µM (inactive) | > 100 µM (inactive) | 37.1 µM (inactive) | > 100 µM (inactive) | > 100 µM (inactive) | > 100 µM (inactive) |  |  | 
2 | O=C(O)CCc1ccc2c(c1)CC1(Cc3ccccc3C1)C2 | > 100 µM (inactive) |  | > 100 µM (inactive) | > 100 µM (inactive) | > 100 µM (inactive) | > 100 µM (inactive) | > 100 µM (inactive) | > 100 µM (inactive) | > 100 µM (inactive) | > 100 µM (inactive) | > 100 µM (inactive) | > 100 µM (inactive) | 80 µM (inactive) | > 100 µM (inactive) | > 100 µM (inactive) |  | > 100 µM (inactive) | > 100 µM | 
3 | COc1ccc(C2=C(Cl)C(=O)N(c3ccc(OC)cc3OC)C(=O)C2(Cl)Cl)cc1 | 17.9 µM (inactive) | 45.2 µM (inactive) | 18.1 µM (inactive) |  | 14.4 µM (inactive) | 9.77 µM (inactive) | 14.3 µM (inactive) | 14.6 µM (inactive) | 16.6 µM (inactive) |  | 18.5 µM (inactive) | < 0.01 µM (active) |  | 16.9 µM (inactive) | 13.2 µM (inactive) | 17.3 µM (inactive) | 11.8 µM (inactive) | 14.2 µM | 18.1 µM (inactive)
4 | O=C(COc1ccc2c(=O)cc(-c3ccc(Cl)cc3)oc2c1)N1CCN(c2ccccc2)CC1 | > 100 µM (inactive) | > 100 µM (inactive) | > 100 µM (inactive) | > 100 µM (inactive) | > 100 µM (inactive) | 64.1 µM (inactive) |  | > 100 µM (inactive) | > 100 µM (inactive) | > 100 µM (inactive) | > 100 µM (inactive) | 65.9 µM (inactive) |  |  |  |  |  | > 100 µM | > 100 µM (inactive)
5 | O=c1oc2ccccc2n1CCN1CCCCC1 | > 100 µM (inactive) | > 100 µM (inactive) | > 100 µM (inactive) |  | > 100 µM (inactive) |  |  | > 100 µM (inactive) | > 100 µM (inactive) | > 100 µM (inactive) | > 100 µM (inactive) | > 100 µM (inactive) | > 100 µM (inactive) | > 100 µM (inactive) | > 100 µM (inactive) | > 100 µM (inactive) |  | > 100 µM | > 100 µM (inactive)
6 | C=C(C)[C@@]1(OC(=O)c2cc([N+](=O)[O-])cc([N+](=O)[O-])c2)C[C@@H]2CCCC[C@@H]21 |  | 46.9 µM (inactive) | 47.9 µM (inactive) | 59.6 µM (inactive) | > 100 µM (inactive) |  | > 100 µM (inactive) | 53.6 µM (inactive) | > 100 µM (inactive) | 45.4 µM (inactive) | > 100 µM (inactive) | > 100 µM (inactive) | > 100 µM (inactive) |  | > 100 µM (inactive) | > 100 µM (inactive) | > 100 µM (inactive) | > 100 µM | > 100 µM (inactive)
7 | CC[C@]12C=CCN3CCC4(c5cc(/N=N/c6ccc([N+](=O)[O-])cc6)c(OC)cc5N(C)[C@H]4[C@@](O)(C(=O)OC)[C@@H]1OC(C)=O)[C@@H]32 (stereo not given in full) | 12.5 µM (inactive) | 19.8 µM (inactive) | 10.4 µM (inactive) |  | 13 µM (inactive) | 2.54 µM (inactive) |  | 15.5 µM (inactive) | 11.2 µM (inactive) | 3.48 µM (inactive) | 11.9 µM (inactive) | 23.8 µM (inactive) | 1.77 µM (inactive) | 11.7 µM (inactive) | 4.26 µM (inactive) | 22.8 µM (inactive) | 13.3 µM (inactive) | 13.5 µM | 16.2 µM (inactive)
8 | ClCCN1CCC2(CC1)SSC1(CCN(CCCl)CC1)S2 |  | 29.3 µM (inactive) | 48 µM (inactive) |  | 29.6 µM (inactive) | 1.79 µM (inactive) |  | 61.4 µM (inactive) | 42.1 µM (inactive) | 21.4 µM (inactive) | 74 µM (inactive) | 26.2 µM (inactive) | 15 µM (inactive) | 73.6 µM (inactive) | 30.1 µM (inactive) | 37.2 µM (inactive) |  | 36.2 µM | 10.8 µM (inactive)
9 | COc1ccc(C[C@@H](CO)NC2=C(C#N)CCC2)cc1 | 48.6 µM (inactive) | 64.7 µM (inactive) | 33.4 µM (inactive) | 19.6 µM (inactive) | 71.6 µM (inactive) | 43.5 µM (inactive) |  | 41.4 µM (inactive) | > 100 µM (inactive) | 18.1 µM (inactive) |  | > 100 µM (inactive) | 42.6 µM (inactive) | 48 µM (inactive) | 32.3 µM (inactive) | 50.6 µM (inactive) |  | 40.4 µM | 58.9 µM (inactive)
10 | N#Cc1cc2c(n(C3OC(CO)C(O)C(O)C3O)c1=S)CCCCC2 (stereo not given) | > 100 µM (inactive) | > 100 µM (inactive) | > 100 µM (inactive) | > 100 µM (inactive) | > 100 µM (inactive) | > 100 µM (inactive) | > 100 µM (inactive) | > 100 µM (inactive) | > 100 µM (inactive) | > 100 µM (inactive) | > 100 µM (inactive) | > 100 µM (inactive) | > 100 µM (inactive) | > 100 µM (inactive) | > 100 µM (inactive) | > 100 µM (inactive) |  | > 100 µM | > 100 µM (inactive)
11 | COc1ccc(C(NCCNC(c2ccc(OC)c(OC)c2)c2cc3c(cc2O)OCO3)c2cc3c(cc2O)OCO3)cc1OC (stereo not given) | 1.72 µM (inactive) | 4.35 µM (inactive) | 2.64 µM (inactive) |  | 4.57 µM (inactive) | 6.71 µM (inactive) | 1.74 µM (inactive) | 2.92 µM (inactive) | 2.87 µM (inactive) | 2 µM (inactive) | 2.72 µM (inactive) | 1.92 µM (inactive) | 0.141 µM (active) | 1.87 µM (inactive) | 2.47 µM (inactive) | 2.8 µM (inactive) | 3.37 µM (inactive) | 1.85 µM | 1.63 µM (inactive)
12 | CCOC(=O)[C@@H]1ON2O[C@H](OC3CCCC3(c3ccccc3)c3ccccc3)C[C@H]3OC(=O)[C@@H]1C32 (stereo not given in full) | 11.1 µM (inactive) | 34 µM (inactive) | 23.3 µM (inactive) | 52.1 µM (inactive) | > 100 µM (inactive) | 95.7 µM (inactive) | 36.4 µM (inactive) | 45.3 µM (inactive) | 52.4 µM (inactive) | 35.6 µM (inactive) | 33.7 µM (inactive) | 97.5 µM (inactive) | 26.3 µM (inactive) | 30.1 µM (inactive) |  | 25.5 µM (inactive) | 26.1 µM (inactive) | 48.3 µM | 95.9 µM (inactive)
13 | CCOc1cc(C2CC(c3ccc(NS(=O)(=O)c4cc([N+](=O)[O-])ccc4C)cc3)=NN2C(=O)c2ccccc2)ccc1O (stereo not given) | 11.4 µM (inactive) |  | 26.5 µM (inactive) |  | 36.6 µM (inactive) | 14.8 µM (inactive) | 14.8 µM (inactive) | 18.7 µM (inactive) | 18.7 µM (inactive) | 31.5 µM (inactive) | 10.6 µM (inactive) | 22.3 µM (inactive) | 20.7 µM (inactive) | 28.1 µM (inactive) | 17.5 µM (inactive) | 32.7 µM (inactive) | 12.1 µM (inactive) | 12.9 µM | 15.7 µM (inactive)
14 | COc1ccc(/C=C\c2cc(OC)c(OC)c(OC)c2)cc1OC(=O)CCC(=O)O |  | < 0.0001 µM (active) | 0.774 µM (active) |  |  |  | < 0.0001 µM (active) | < 0.0001 µM (active) | < 0.0001 µM (active) | < 0.0001 µM (active) | 0.000145 µM (active) | < 0.0001 µM (active) | < 0.0001 µM (active) | < 0.0001 µM (active) | < 0.0001 µM (active) | < 0.0001 µM (active) | 29.9 µM (inactive) | < 0.0001 µM | < 0.0001 µM (active)
15 | C[N+](C)(N)CCC[N+](C)(C)N | > 100 µM (inactive) | > 100 µM (inactive) | > 100 µM (inactive) |  | > 100 µM (inactive) | > 100 µM (inactive) | > 100 µM (inactive) | > 100 µM (inactive) | > 100 µM (inactive) | > 100 µM (inactive) | > 100 µM (inactive) | > 100 µM (inactive) | > 100 µM (inactive) | > 100 µM (inactive) | > 100 µM (inactive) | > 100 µM (inactive) | > 100 µM (inactive) | > 100 µM | > 100 µM (inactive)
16 | Cc1cc(/N=N/c2ccccc2C)ccc1N | 6.82 µM (inactive) | 3.19 µM (inactive) | 17.3 µM (inactive) | 12.4 µM (inactive) | 17.9 µM (inactive) | 10.5 µM (inactive) |  | 12.4 µM (inactive) | 14.3 µM (inactive) |  | 14.6 µM (inactive) | 12.4 µM (inactive) | 1.42 µM (inactive) | 19.5 µM (inactive) | 11.1 µM (inactive) |  |  | 12.1 µM | 
17 | CC(C)(S)C(N)C(=O)O (stereo not drawn) [DL-PENICILLAMINE] | > 100 µM (inactive) | > 100 µM (inactive) | > 100 µM (inactive) |  | > 100 µM (inactive) | > 100 µM (inactive) | > 100 µM (inactive) | > 100 µM (inactive) | > 100 µM (inactive) | > 100 µM (inactive) | > 100 µM (inactive) | > 100 µM (inactive) |  | > 100 µM (inactive) | > 100 µM (inactive) | > 100 µM (inactive) | > 100 µM (inactive) | > 100 µM | > 100 µM (inactive)
